Test results from patent US20020142982A1, “Method for regulating angiogenesis” (priority 1999, published 2002).

Key:
HUVEC [1] = assay: SPP-induced intracellular calcium in HUVEC (Indo-1 fluorescence); type: cell-based, human; settings: HUVEC stimulated with SPP
Method: Functional assays were used to test for the presence of Gi-coupled and Gq-coupled SPP receptors in HUVEC. First, intracellular calcium levels were measured in response to SPP. For these experiments, cells were grown on 100-mm tissue culture dishes and loaded with the fluorescent calcium-sensitive dye, Indo-1 acetoxymethyl ester (Indo-1/AM, 5 μg/mL; Molecular Probes, Inc., Eugene, Oreg.), for 30 min at 37° C. Cells were then washed with medium M199, briefly trypsinized (0.05% porcine trypsin/0.02% EDTA in HBSS (JRH Biosciences, Lenexa, Kans.), and the trypsin activity was immediately neutralized with soybean trypsin inhibitor (5 μg/mL, Sigma Chemical Co., St. Louis, Mo.). Following centrifugation (250 g×5 min), cells were resuspended in M199 medium to a density of 2.7×10^5 cells/mL. Cells were then stimulated with different doses of SPP. Some cells were pretreated with the Gi inhibitor pertussis toxin (PTx, 500 ng-/mL) for 16 hours. Calcium ion concentration was then quantified by measuring changes in indo-1 fluorescence in 2 mL of cell suspension by a Hitachi F-2000 fluorescence Spectrophotometer with constant stirring. Fluorescence emission was monitored at 400 and 475 nm with excitation at 352 nm. [Ca^+2]1 was calculated as described in Volpi and Berlin, J. Cell Biol., Vol. 107, 2533-39 (1988).

HUVEC [2] = assay: Actin cytoskeleton (stress fibers, cortical actin) in HUVEC, phalloidin staining; type: cell-based, human; settings: 500 nM SPP, 30 minutes
Method: SPP is known to induce Rho-dependent actin stress fibers in NIH3T3 fibroblasts. To disclose Rho- or Rac-dependence, HUVEC were plated at 2×10^5 cells in 35 mm glass bottom petri dishes (Plastek cultureware, Mat Tek Corporation, Ashland Mass.). Two days later, recently confluent cells were washed and changed to medium M199 supplemented with 10% dialyzed charcoal-stripped fetal bovine serum (CFBS) and growth factors for 16 hours. Approximately 500-800 cells were then microinjected cytoplasmically with Rho inhibitor C3 exoenzyme (0.1 μg/μL, Calbiochem) or dominant negative N17Rac protein (0.35 μg/μl; Ridley, A., et al., Cell 70: 401-410 (1992)) using Femtotips (Eppendorf) at 100 hPa/0.2 sec. Injected cells were marked by coinjection of FITC-rabbit IgG (5 mg/mL, Cappel).
Subsequently, cells were treated with or without SPP. After treatment cells were washed with ice-cold PBS, fixed with 4% formaldehyde at room temperature or methanol at −20° C. for 15 minutes. In the case of formaldehyde fixation, cells were permeabilized with 0.2% Triton X-100 (TX-100). Actin microfilaments were visualized by staining with either FTOC- or TRITC-conjugated phalloidin (0.05 μg/mL, Sigma) for 30 minutes at room temperature.

HUVEC [3] = assay: C2-Ceramide-induced apoptosis of HUVEC (DNA fragmentation); type: cell-based, human; settings: SPP 10 to 500 nM, 1 μM C2-Ceramide, 12 hours
Method: The ability of SPP to protect endothelial cells from apoptosis was investigated. In these experiments, HUVEC were treated with 1 μM C2-Ceramide for 12 hours and apoptosis was measured in the following manner: HUVEC were plated onto coverslips and allowed to grow for 2 days. Cells were washed three times with medium M199, and treated with 1 μM C2-Ceramide (Biomol) for 12 hours in the presence or absence of SPP. Subsequently, cells were fixed with methanol at −20° C. for 5 minutes, air dried, and stained with Hoechst 33258 dye (0.5 μg/mL for 5 minutes; Sigma Chemical Co., St. Louis, Mo.). The apoptotic nuclei were identified with the aid of a Zeiss Axiovert 100TB fluorescence microscope. For quantification, HUVEC were labeled with ^3Hmethyl-thymidine (5 μCi/mL, NEN DuPont) for 24 hours. Following three washes with medium M199, cells were treated with C2-Ceramide as above. 12 hours later, cells were extracted with lysis buffer (5 mM tris, pH 7.4, 2 mM EDTA, 0.5% TX-100) at 4° C. for 20 minutes. After centrifugation (15,000 g, 20 minutes), the radioactivity present in the supernatant and sediment was measured by liquid scintillation counting. The percentage of DNA fragmentation was determined as ((supernatant cpm)/(supernatant cpm+sediment cpm))×100%.
SPP+PTx and SPP+PD98059 (10 μM), respectively, for 2 hours prior to the addition of C2-Ceramide (1 μM) and SPP (10 to 500 nM). Data are mean±standard deviation of triplicate determinations from a representative experiment which was repeated two times. […] A similar effect was also seen when growth factor withdrawal, and 15-deoxy Δ^12,14 prostaglandin J2 were used as apoptotic stimuli (data not shown). […] Therefore SPP induced endothelial cell survival requires the Gi/ERK signaling pathway.

ERK-2 = ERK-2 immune complex kinase assay in HUVEC; type: cell-based, human; settings: SPP 10-500 nM, 10 minutes, starved HUVEC
Method: As a second functional assay, ERK-2 kinase activity was measured in response to SPP treatment. For these experiments, endothelial cells were starved for 19 hours, and then stimulated with SPP for 10 minutes. Cells were then lysed, and ERK-2 kinase activity was measured by an immune complex kinase assay using myelin basic protein (MBP) as substrate. Some cells were pretreated with pertussis toxin (PTx) at 200 ng/mL, or PD98059 at 10 μM for 2 hours prior to stimulation.

[4] = tested on: bovine microvascular endothelial cells; assay: Morphogenesis of bovine microvascular endothelial cells; type: cell-based; settings: SPP 100 nM to 1 μM, data not shown

Question: Which intracellular calcium response (HUVEC [1]) does the source give for `CCCCCCCCCCCCC/C=C/[C@@H](O)[C@@H](N)COP(=O)(O)O` [SPP, sphingosine-1-phosphate] here?
Answer: robust calcium response

Question: And the “formation of stress fibers and cortical actin” value (HUVEC [2])?
Answer: induced the formation of stress fibers

Question: What about the “protection from apoptosis induced by C2-Ceramide” value (HUVEC [3]) of the same compound?
Answer: significantly protected

Question: What about the ERK activity (ERK-2) of the same compound?
Answer: activated ERK activity in a dose-dependent manner

Question: And the “morphogenesis of bovine microvascular endothelial cells” value [4]?
Answer: induced morphogenesis
